In patent US10294488B2, “Herbicide-metabolizing cytochrome P450 monooxygenases” (BASF SE, priority 2012, dated 2019):

Tests used:
AmCYP04 (Seq ID 27) = experiment: Herbicide degradation in transgenic yeast cells expressing cytochrome P450 AmCYP04; assay type: in vitro ADME, Alopecurus myosuroides; conditions: transgenic yeast cells (S. cerevisiae BJ5459) expressing AmCYP04, Seq ID 27, recovery of herbicide in reference to control, UPLC-MS/MS
Description: (§1) The cDNA of CYP450 monooxygenase genes were synthesized with an optimized codon usage for yeast, cloned via uniqueBamHI-SalI restriction sites in the low copy pESC-ura expression vector (Agilent Technologies). Constructs were transformed into S. cerevisiae wild type strain BJ5459 (MATa ura3-5 trp lys2-801 leu2Δ1 his3Δ200 pep4Δ::HIS3 prb1Δ1.6R can1 GAL cir^+; ATCC 208284) using a Yeast Maker Transformation System from Clontech and verified by colony PCR. Positive clones were selected on minimal synthetic-defined media (SD) supplemented with appropriate dropout solution. The strain had no obvious phenotypes. Cells were induced in SG-Ura medium (same composition as SD but with galactose instead of glucose) for 24 h (Pompon et al., Methods in Enzymology 272:51-64 (1996); Urban et al., Eur. J. Biochem. 222:[…] (1994)). Optimal heterologous protein expression was assayed using Western Blot analysis.
(§2) 96 deep well growth plates (STARLAB GmbH) charged with 700 μL SDA medium are inoculated with the respective yeast strains from cryostock and incubated at 30° C., 400 rpm. After 48 h, an aliquot is transferred into a new plate with fresh SDA medium 400 rpm. After 4 h the cultures are spun down, the supernatant discarded and the pellets resuspended in 700 μL pre-warmed SGA media to induce protein expression at 30° C. and 400 rpm. After an incubation time of 24 h, 7 μL herbicide solution (500 μM DMSO stock solution) or solvent control is added to the yeast culture incubated for additional 24 h. The herbicide conversion is stopped by adding 700 μL acetonitrile followed by ultrasonification. The homogenate is prepared for UPLC-MS/MS analysis. The degradation rate was calculated by the determination of the recovery of the herbicide in reference to the control.

AmCYP01 (Seq ID 2) = experiment: Herbicide degradation in transgenic yeast cells expressing cytochrome P450 AmCYP01; assay type: in vitro ADME, Alopecurus myosuroides; conditions: transgenic yeast cells (S. cerevisiae BJ5459) expressing AmCYP01, Seq ID 2, recovery of herbicide in reference to control, UPLC-MS/MS
Description: as §1, §2

AmCYP03_1 (Seq ID 4) = experiment: Herbicide degradation in transgenic yeast cells expressing cytochrome P450 AmCYP03_1; assay type: in vitro ADME, Alopecurus myosuroides; conditions: transgenic yeast cells (S. cerevisiae BJ5459) expressing AmCYP03_1, Seq ID 4, recovery of herbicide in reference to control, UPLC-MS/MS
Description: as §1, §2

AmCYP12_1 (Seq ID 45) = experiment: Herbicide degradation in transgenic yeast cells expressing cytochrome P450 AmCYP12_1; assay type: in vitro ADME, Alopecurus myosuroides; conditions: transgenic yeast cells (S. cerevisiae BJ5459) expressing AmCYP12_1, Seq ID 45, recovery of herbicide in reference to control, UPLC-MS/MS
Description: as §1, §2

AmCYP03b (Seq ID 6) = experiment: Herbicide degradation in transgenic yeast cells expressing cytochrome P450 AmCYP03b; assay type: in vitro ADME, Alopecurus myosuroides; conditions: transgenic yeast cells (S. cerevisiae BJ5459) expressing AmCYP03b, recovery of herbicide in reference to control, UPLC-MS/MS
Description: as §1, §2

[1] = system: transgenic plants expressing Am_CYP04 (SEQ ID 27); experiment: Greenhouse herbicide tolerance of transgenic plants expressing Am_CYP04 (FIG. 2); assay type: in vivo, Arabidopsis thaliana; conditions: plants expressing Am_CYP04 (SEQ ID 27) vs wildtype, different application rates (g/ha)
Method: (§3) Transgenic Arabidopsis thaliana plants were assayed for improved tolerance to saflufenacil, 1,5-dimethyl-6-thioxo-3-(2,2,7-trifluoro-3-oxo-4-(prop-2-ynyl)-3,4-dihydro-2H-benzo[b][1,4]oxazin-6-yl)-1,3,5-triazinane-2,4-dione (CAS 1258836-72-4), chlorotoluron, pendimethalin, flumioxazin, butafenacil, acifluorfen, lactofen, bifenox, diuron, sulfentrazon, tepraloxydim, coumarone-derivative herbicides, azine-derivative herbicides in 48-well plates. Therefore, T2 seeds are surface sterilized by stirring for 5 min in ethanol+water (70+30 by volume), rinsing one time with ethanol+water (70+30 by volume) and two times with sterile, deionized water. The seeds are resuspended in 0.1% agar dissolved in water (w/v) Four to five seeds per well are plated on solid nutrient medium consisting of half-strength murashige skoog nutrient solution, pH 5.8 (Murashige and Skoog (1962) Physiologia Plantarum 15: 473-497). Compounds are dissolved in dimethylsulfoxid (DMSO) and added to the medium prior solidification (final DMSO concentration 0.1%). Multi well plates are incubated in a growth chamber at 22° C., 75% relative humidity and 110 μmol Phot*m^2*s^−1 with 14:10 h light: dark photoperiod. Growth inhibition is evaluated seven to ten days after seeding in comparison to wild type plants. Additionally, transgenic T1 Arabidopsis plants were tested for improved tolerance to herbicides in greenhouse studies with the following herbicides: saflufenacil, 1,5-dimethyl-6-thioxo-3-(2,2,7-trifluoro-3-oxo-4-(prop-2-ynyl)-3,4-dihydro-2H-benzo[b][1,4]oxazin-6-yl)-1,3,5-triazinane-2,4-dione (CAS 1258836-72-4), chlorotoluron, pendimethalin, flumioxazin, butafenacil, acifluorfen, lactofen, bifenox, diuron, sulfentrazone, tepraloxydim, coumarone-derivative herbicides, azine-derivative herbicides.

[2] = system: transgenic plants expressing Am_CYP03 (SEQ ID 4); experiment: Greenhouse herbicide tolerance of transgenic plants expressing Am_CYP03 (FIG. 1); assay type: in vivo, Arabidopsis thaliana; conditions: plants expressing Am_CYP03 (SEQ ID 4) vs wildtype, different application rates (g/ha)
Method: as §3

SMILES	Degradation rate of listed herbicidal compounds within 24 h (AmCYP04 (Seq ID 27))	Degradation rate of listed herbicidal compounds within 24 h (AmCYP01 (Seq ID 2))	Degradation rate of listed herbicidal compounds within 24 h (AmCYP03_1 (Seq ID 4))	Degradation rate of listed herbicidal compounds within 24 h (AmCYP12_1 (Seq ID 45))	Degradation rate of listed herbicidal compounds within 24 h (AmCYP03b (Seq ID 6))	Phenotype (injury) of transgenic plants compared to non-transgenic plants [1]	Phenotype (injury) of transgenic plants compared to non-transgenic plants [2]
O=S1(=O)C(c2c(Cl)cc(Cl)nc2Cl)=C(O)c2ncccc2N1CC(F)F [Coumarone-derivative 1, 1-(2,2-difluoroethyl)-2,2-dioxo-3-(2,4,6-trichloro-3-pyridyl)pyrido[3,2-c]thiazin-4-ol]	31	0	25	10	18		
O=S1(=O)C(c2c(Cl)cc(Cl)nc2Cl)=C(O)c2ncccc2N1CC(F)F [Coumarone-derivative 9, 1-(2,2-difluoroethyl)-2,2-dioxo-3-(2,4,6-trichloro-3-pyridyl)pyrido[3,2-c]thiazin-4-ol]	18	0	12	0	5		
O=S1(=O)Oc2cccnc2C(O)=C1c1c(Cl)cccc1C(F)(F)F [Coumarone-derivative 4, 3-[2-chloro-6-(trifluoromethyl)phenyl]-2,2-dioxo-oxathiino[5,6-b]pyridin-4-ol]	12	0	4	4	7		
CN(c1c(Cl)ccc(C2=C(O)c3ncccc3C(C)(C)S2(=O)=O)c1Cl)S(C)(=O)=O [Coumarone-derivative 10, N-[2,6-dichloro-3-(8-hydroxy-5,5-dimethyl-6,6-dioxo-thiopyrano[4,3-b]pyridin-7-yl)phenyl]-N-methyl-methanesulfonamide]	19	0	15	0	9		
COCCOCc1c(Cl)ccc(C2=C(O)c3ncccc3C(C)(C)S2(=O)=O)c1Cl [Coumarone-derivative 7, 7-[2,4-dichloro-3-(2-methoxyethoxymethyl)phenyl]-5,5-dimethyl-6,6-dioxo-thiopyrano[4,3-b]pyridin-8-ol]	7	0	14	5	6		
O=S1(=O)Cc2cccnc2C(O)=C1c1ccccc1C(F)(F)F [Coumarone-derivative 3, 6,6-dioxo-7-[2-(trifluoromethyl)phenyl]-5H-thiopyrano[4,3-b]pyridin-8-ol]	9	0	0	27	0		
Cc1c(Cl)ccc(Cl)c1C1=C(O)c2ncccc2C(C)(C)S1(=O)=O [Coumarone-derivative 11, 7-(3,6-dichloro-2-methyl-phenyl)-5,5-dimethyl-6,6-dioxo-thiopyrano[4,3-b]pyridin-8-ol]	0	0	0	0	18		
C#CCN1C(=O)C(F)(F)Oc2cc(F)c(-n3c(=O)n(C)c(=S)n(C)c3=O)cc21 [1,5-dimethyl-6-thioxo-3-(2,2,7-trifluoro-3-oxo-4-(prop-2-ynyl)-3,4-dihydro-2H-benzo[b][1,4]oxazin-6-yl)-1,3,5-triazinane-2,4-dione, reference compound]	24	17	23	20	21	much less injured	much less injured
CCC(CC)Nc1c([N+](=O)[O-])cc(C)c(C)c1[N+](=O)[O-] [pendimethalin, reference compound]	25	13	24	16	24		
N#Cc1ccc(C2=C(O)c3ncccc3N(CC(F)F)S2(=O)=O)c(C(F)(F)F)c1 [Coumarone-derivative 2, 4-[1-(2,2-difluoroethyl)-4-hydroxy-2,2-dioxo-pyrido[3,2-c]thiazin-3-yl]-3-(trifluoromethyl)benzonitrile]	0	0	16	24	7		
COc1ccc(C2=C(O)c3ncccc3C(C)(C)S2(=O)=O)c(C(F)(F)F)n1 [Coumarone-derivative 8, 7-[6-methoxy-2-(trifluoromethyl)-3-pyridyl]-5,5-dimethyl-6,6-dioxo-thiopyrano[4,3-b]pyridin-8-ol]	0	0	10	3	0		
CC1(C)c2cccnc2C(O)=C(c2ccc(Cl)nc2Cl)S1(=O)=O [Coumarone-derivative 5, 7-(2,6-dichloro-3-pyridyl)-5,5-dimethyl-6,6-dioxo-thiopyrano[4,3-b]pyridin-8-ol]	22	14	2	15	17		
CC1=NOC(c2c(Cl)ccc(C3=C(O)c4ncccc4C(C)(C)S3(=O)=O)c2Cl)C1 (stereo not shown) [Coumarone-derivative 6, 7-[2,4-dichloro-3-(3-methyl-4,5-dihydroisoxazol-5-yl)phenyl]-5,5-dimethyl-6,6-dioxo-thiopyrano[4,3-b]pyridin-8-ol]	0	1	2	4	0		
